Results as given in publication PMC3086806, “Mining a Cathepsin Inhibitor Library for New Antiparasitic Drug Leads” (PLoS Neglected Tropical Diseases, 2011).
pIC50, pKi: −log10 of the molar value.

Experiments:
falcipain-3 = target: T1, falcipain-3 (Plasmodium falciparum, UniProt Q8IIL0); assay: Falcipain-3 protease inhibition assay (Z-Leu-Arg-AMC); format: biochemical; conditions: read-out: IC50 falcipain-3
T1 construct: made in house
T1 sequence (Q8IIL0 243-492): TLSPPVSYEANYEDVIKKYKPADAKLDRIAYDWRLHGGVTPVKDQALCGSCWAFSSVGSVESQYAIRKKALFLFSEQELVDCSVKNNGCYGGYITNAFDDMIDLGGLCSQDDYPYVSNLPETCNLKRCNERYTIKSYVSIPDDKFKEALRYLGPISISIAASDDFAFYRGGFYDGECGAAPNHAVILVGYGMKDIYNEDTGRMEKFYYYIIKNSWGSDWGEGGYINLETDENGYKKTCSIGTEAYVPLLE
Method: (§1) Recombinant cruzain, rhodesain, TbCatB, falcipain-2 and falcipain-3 were expressed as described previously, [39], [40], [41], [42]. Inhibitor stock solutions were prepared in DMSO and screened at 0.1 µM for cruzain and rhodesain, 1 µM for TbCatB and 50 nM for falcipain-3 (0.5% DMSO in assay). […] Protease inhibition assays for cruzain and rhodesain were carried out in 96 well plate format as described previously. Cruzain (4 nM), rhodesain (4 nM) or TbCatB (258 nM) was incubated with test compound in 100 mM sodium acetate, pH 5.5, containing 5 mM DTT and 0.01% Triton X-100 (buffer A), for 5 min at room temperature (the higher concentration of TbCatB was required due to its lower intrinsic activity against the fluorogenic substrate). Then buffer A containing Z-Phe-Arg-AMC (Bachem) was added to enzyme-compound mixture to give 10 µM substrate in a final assay volume of 200 µL. The rate of free AMC release was measured at excitation and emission wavelengths of 355 and 460 nm, respectively, with a microtiter plate spectrofluorimeter (SpectraMax M5, Molecular Devices) for 3 min. Percentage inhibition of test compound was calculated relative to the DMSO control (0% inhibition control). IC50 values were determined with Prism 4 software (GraphPad, San Diego, CA) using sigmoidal dose-response variable slope model.
(§2) Protease inhibition assays for falcipain-2 and falcipain-3 were carried out in 96 well plate format as described previously, [43] with modification for end-point readout. Falcipain-2 (21 nM) or falcipain-3 (78 nM) was incubated with test compound for 10 min at room temperature in 200 mM sodium acetate, pH 6, 10 mM DTT and 3.6% glycerol and 0.01% Triton X-100 (buffer B). Then buffer B containing Z-Leu-Arg-AMC (Bachem) was added to the enzyme-compound mixture to give 25 µM substrate in a final assay volume of 200 µL. After 15 min, 50 µL of 5 M acetic acid was added to each well to stop the reaction. End-point fluorescence was read in a spectrofluorimeter as above. The 0% inhibition control wells contained DMSO while 100% inhibition control wells contained 50 µM E-64 (Sigma). Percentage inhibition of test compound was calculated relative to the controls and IC50 curve fitting was performed with Prism 4 software as above.

falcipain-2 = target: T2, falcipain-2 (Plasmodium falciparum, UniProt Q8I6U4); assay: Falcipain-2 protease inhibition assay (Z-Leu-Arg-AMC); format: biochemical
T2 construct: made in house
T2 sequence (Q8I6U4 244-484): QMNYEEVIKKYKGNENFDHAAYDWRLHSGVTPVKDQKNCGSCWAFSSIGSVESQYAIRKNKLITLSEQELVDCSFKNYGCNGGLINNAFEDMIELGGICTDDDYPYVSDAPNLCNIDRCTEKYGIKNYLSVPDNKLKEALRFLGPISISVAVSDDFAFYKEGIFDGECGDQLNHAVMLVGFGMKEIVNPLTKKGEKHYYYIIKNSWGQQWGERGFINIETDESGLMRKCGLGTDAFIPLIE
Method: as §1, §2

TbCatB = target: T3, TbCatB (Trypanosoma brucei, UniProt Q6R7Z5); assay: TbCatB protease inhibition assay (Z-Phe-Arg-AMC); format: biochemical
T3 construct: made in house
T3 sequence (Q6R7Z5 23-340): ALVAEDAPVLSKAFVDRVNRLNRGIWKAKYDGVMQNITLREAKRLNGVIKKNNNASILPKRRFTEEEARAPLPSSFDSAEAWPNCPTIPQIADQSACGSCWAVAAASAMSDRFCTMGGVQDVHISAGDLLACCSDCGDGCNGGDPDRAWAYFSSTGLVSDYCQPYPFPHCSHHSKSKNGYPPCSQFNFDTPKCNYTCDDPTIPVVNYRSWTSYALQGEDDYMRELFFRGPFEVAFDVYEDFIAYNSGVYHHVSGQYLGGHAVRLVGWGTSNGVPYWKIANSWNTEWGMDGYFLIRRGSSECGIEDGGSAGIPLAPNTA
Method: as §1

cruzain = target: T4, cruzain (Trypanosoma cruzi, UniProt P25779); assay: Cruzain protease inhibition assay (Z-Phe-Arg-AMC); format: biochemical
T4 construct: made in house
T4 sequence (P25779 123-467): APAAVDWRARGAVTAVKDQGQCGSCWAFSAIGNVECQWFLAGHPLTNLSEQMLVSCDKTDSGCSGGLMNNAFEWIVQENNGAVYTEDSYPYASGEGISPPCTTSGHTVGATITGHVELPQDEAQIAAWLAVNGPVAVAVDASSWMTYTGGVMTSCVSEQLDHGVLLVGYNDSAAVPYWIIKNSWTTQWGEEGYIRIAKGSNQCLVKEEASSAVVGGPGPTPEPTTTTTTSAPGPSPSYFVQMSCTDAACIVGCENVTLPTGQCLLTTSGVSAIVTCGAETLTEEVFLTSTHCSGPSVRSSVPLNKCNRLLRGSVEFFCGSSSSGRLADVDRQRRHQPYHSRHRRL
Method: as §1

[1] = test system: W2-strain P. falciparum parasites; assay: P. falciparum growth inhibition assay; format: cell-based, Plasmodium falciparum; conditions: Plasmodium falciparum; cultured W2 strain, 48 hours; read-out: GI50 P. falc. W2
Method: The growth inhibition assay for P. falciparum was conducted as described previously. W2-strain P. falciparum parasites (1% parasitemia, 2% hematocrit) were cultured at 37°C in human red blood cells under the atmosphere of 3% O2, 5% CO2 balance N2 in 0.2 mL of per well in medium RPMI-1640 supplemented with 10% human serum in duplicate 96-well flat bottom culture plates in the presence of inhibitors. Tested compounds were serially diluted 1∶3 in the range 10,000 – 4.6 nM, with maximum DMSO concentration of 0.1%. Following 48 hours of incubation, the medium was removed and the cells were fixed in 2% formaldehyde in PBS. Parasite growth was evaluated by flow cytometry on a FACsort (Becton Dickinson) equipped with AMS-1 loader (Cytek Development) after staining with 1 nM DNA dye YOYO-1(Molecular Probes) in 100 mM NH4Cl, 0.8% NaCl. Parasitemias were determined from dot plots (forward scatter vs. fluorescence) using […] software (Becton Dickinson). IC50 values for growth inhibition were determined from plots of percentage control parasitemia over inhibitor concentration using GraphPad Prism software.

human cathepsin B = target: human cathepsin B; design: method as in data provided by Celera Genomics; conditions: historical data; ref data provided by Celera Genomics; read-out: Ki catB; cited from earlier work

| SMILES | pIC50 (falcipain-3) | pIC50 (falcipain-2) | pIC50 (TbCatB) | pIC50 (cruzain) | GI50 [1] | pKi (human cathepsin B) |
| --- | --- | --- | --- | --- | --- | --- |
| CCCCC(NC(=O)C(CC(C)C)NC(=O)N1CCOCC1)C(=O)c1nc2ccccc2o1 (stereo not drawn) [Compound 19a] | 8.08 | 8.68 | 6.00 | 9.00 | 1200 nM | 6.90 |
| CCCCC(NC(=O)C(Cc1ccccc1)NC(=O)N1CCOCC1)C(=O)c1nc2ccccc2o1 (stereo not drawn) [Compound 19b] | 8.31 | 8.36 | 6.22 | 8.40 | 2900 nM | 7.38 |
